In US20250339462A1, “CANCER TREATMENT USING ULTRA-HIGH CONCENTRATION GASEOUS NITRIC OXIDE AND A CHECKPOINT INHIBITOR” (Beyond Air, Inc., priority 2022, published 2025):
Entries after “also recorded” stand apart in the source; their conditions may differ.

System: 4T1 tumor-bearing mice
Assay: 4T1 breast cancer model, UNO/Anti-CTLA-4 Repeated dose study
Type: in vivo, mouse
Method: Preparation of 4T1 cells: Cancer cell suspension, in Hanks' Balanced Salt Solution (HBSS) (Biological Industries, Israel), at a concentration of 5.0×10^6 cells/ml was freshly prepared on the day of the cancer model induction. Cells were grown to a 70-80% confluency and harvested using trypsin. The cells were centrifuged at 1,200 revolutions per minute (rpm)—241 G for 8 minutes, then the pellet was re-suspended in 1 ml of HBSS. The cells were counted using an automated cell counter and a suspension with a concentration of 5.0×10^6 cells/ml was prepared. Cell viability must be above 90% before cell inoculation to the mice, otherwise new cells will need to be prepared. At the point of inoculation, cells will be at passage 8 at most. The cell suspension was then aspirated into a 1 ml syringe with a 27 G needle, for subcutaneous (s.c.) injection. All injection volume was used and was not re-introduced into the stock solution.
Inoculation of 4T1 cancer cells to mice—Cancer cell suspension at a concentration of 5.0×10^6 cells/ml was inoculated to the right flank of animals at a volume of 100 μl per mouse. Female Balb/c mice were inoculated with 100 μl of 5.0×10^6 4T1 cells/ml. Administration was performed as soon as possible following cell preparation and after manual shaking prior to withdrawal of cell suspension. Injections were performed using a 1 ml syringe and a 27 G needle where withdrawal is done without the needle.
UNO and N2 treatment—On the day of treatment, mice were anesthetized by an intraperitoneal (i.p.) injection of 100 mg/kg of ketamine and 10 mg/kg of xylazine hydrochloride solution. Tumor-bearing mice were treated with either N2 or UNO at 50,000 ppm or 100,000 ppm. UNO at 50,000 ppm was administered intratumorally by a 23 G needle for 10 minutes, at 0.2 LPM and 2 bar exit pressure. UNO at 100,000 ppm was administered intratumorally by a 23 G needle for 2 minutes, at 0.2 LPM and 2 bar exit pressure. After treatment, all mice were warmed and closely monitored until complete recovery was observed.
Injection of anti-CTLA-4—Anti-CTLA-4 was administered up to 5 times intraperitoneally (i.p.) at a dose of 5 mg/kg, i.p., using a 1 ml syringe with a 27 G needle. The injection was administered to approximately the same location each time.
UNO/Anti-CTLA-4 Repeated dose study—Balb/c mice (60) were inoculated with mouse breast cancer carcinoma (4T1) cells injected subcutaneously (s.c.) to the right flank. […]
Primary tumor volume progression was monitored twice a week by measuring the tumor using a digital caliper calculated as: […]
Mice survival was evaluated. Mice that reached a tumor volume of ≥1500 mm^3 and/or a score of 12 were humanely euthanized, and the time of death was recorded. Metastases development was evaluated postmortem.

In the case of `[N]=O` [UNO, nitric oxide], the “Survival hazard ratio vs anti-mCTLA-4” value (FIG. 14C, Cox model) is reported as 0.16, the “Survival hazard ratio vs untreated” value (FIG. 14C, Cox model) is reported as 0.31 and the “Mice survival vs anti-mCTLA-4 monotherapy” value (UNO twice (FIG. 14C)) is reported as “prolonged survival; also recorded: significantly prolongs mice survival”. For the same molecule, the “Tumors smaller compared to only anti-mCTLA-4” value (only UNO, 100,000 ppm 2 min twice, day 13 after first UNO treatment, P=0.1158) was 12.9%.
